Reference: US7319103B2, “Non-imidazole tertiary amines as histamine 3 receptor inhibitors for the treatment of cognitive and sleep disorders, obesity and other CNS disorders” (Athersys, Inc., priority 2004, dated 2008)

Key:
human H3 receptor = target: T1, human H3 receptor (Homo sapiens, UniProt Q9Y5N1); assay: Radioligand competition binding assay, human H3 receptor (HT1080 cell membranes); conditions: competition binding vs [3H]Nα-methylhistamine (~2 nM), membranes of HT1080 cells expressing human H3 receptor
T1 construct: Expression of this receptor was provided by utilization of the RAGE methodology; endogenous in cells; host or cells: HT1080 (human fibrosarcoma) cells, H3 expression switched on by RAGE; co-transfected with chimeric G-protein Gqαi5
Experimental: (§1) Representative compounds of the present invention that were prepared by the procedures of the Examples were evaluated in binding assays against cells expressing the mouse and human H3 receptor by the following procedure.
An HT1080 cell line was produced that expresses the human H3 receptor. Expression of this receptor was provided by utilization of the RAGE methodology (Harrington et al., 2001) Nature Biotechol. 19:440-5. This cell line was transfected with the chimeric G-protein Gqαi5 (Conklin et al., 1993) Nature 363:274-6 to facilitate assessment of receptor activation through the analysis of intercellular Ca^++ levels using a fluorescence assay. The HT1080 cells expressing human histamine H3 receptor and Gqαi5 were grown in alpha-modified MEM containing 10% FBS, 3 ug/ml puromycin, 7 ug/ml blasticidin, and 3.2 uM methotrexate at 37° C. in 5% CO2/95% atmosphere.
(§2) Cells were washed with cold PBS buffer twice, scraped off the plates, and centrifuged at 1000×g for 5 minutes. Cells were resuspended in ice-cold buffer of 10 mM Tris, pH 7.4, 5 mM EDTA, protease inhibitor cocktail tablets (Roche Molecular Biochemicals) and incubated on ice for 10 minutes. The mixture was then homogenized with a dounce homogenizer or a polytron tissue grinder and centrifuged at 1000×g for 10 min at 4° C. The supernatant was centrifuged at 32,000×g for 30 min at 4° C. The membrane pellet was resuspended in a buffer of 50 mM Tris, pH 7.4 with protease inhibitor cocktail tablets and stored at −80° C. until use. Protein concentration was determined by the methods of Bradford.
(§3) Membranes were homogenized in buffer containing 50 mM Tris/HCl, 1 mM EDTA pH 7.4, and protease inhibitor cocktail tablets. Dissociation constants of radioligand (KD values) and maximum binding sites (Bmax) were determined in saturation binding experiments. Ki and IC50 were determined in competition binding assays using a fixed amount of radioligand.
(§4) Saturation binding assays were carried out in 96-well polypropylene plates in triplicate or quadruplicate. Reaction mixtures contained 100 μl of membrane suspension (˜100 μg/well), 50 μl of 4% DMSO, 50 μl of increasing amounts of [^3H]N^α-methylhistamine (final concentration of 0.01-20 nM). Nonspecific binding was defined with 10 uM clobenpropit. Competition binding assays were performed in a reaction mixture containing 100 μl of membrane suspension, 50 μl of [H]N^α-methylhistamine (final concentration of ˜2 nM), and 50 μl compounds. […] Incubations were carried out for 1.5 hours at room temperature. Reactions were terminated by rapid filtration over glass fibre GF/C filters (Perkin Elmers, MA) that had been presoaked in 0.3% PEI, using a Brandel cell harvester. The filters were washed with 500 ml of ice-cold buffer containing 50 mM Tris-HCl, pH 7.4, and were subsequently dried, impregnated with Meltilex wax scintillate (Perkin Elmers, MA) and counted with a Betaplate scintillation counter (Perkin Elmers, MA).
(§5) All data were analyzed by nonlinear least square curve fitting using Prism 4.0 software. The KD for [^3H]N^α-methylhistamine and the Bmax were derived from equation RL=RfL/(KD+L). RL is concentration of receptor-bound ligand at equilibrium, L is the free ligand concentration, Rf is the total receptor concentration. For competition binding experiments, IC50 (the concentration of compound producing 50% inhibition of specific binding) was derived from fitting to a 4-parameter logistic equation. Apparent Ki values were calculated using the Cheng-Prussof equation of Ki=IC50/(1+(L)/Kd), L is the ligand concentration. Agonist stimulation and antagonist inhibition in FLIPR were fitted to sigmoidal dose response using equation Y=Bottom+(Top-Bottom)/(1+10^((LogEC50-X))), X is the logarithm of concentration of compounds. Y is the response.

mouse H3 receptor = mouse H3 receptor (Mus musculus, UniProt P58406); assay: Radioligand competition binding assay, mouse H3 receptor; conditions: competition binding vs [3H]Nα-methylhistamine (~2 nM), membranes of cells expressing mouse H3 receptor
Experimental: as §1, §2, §3, §4, §5

T1 sequence (Q9Y5N1 whole entry): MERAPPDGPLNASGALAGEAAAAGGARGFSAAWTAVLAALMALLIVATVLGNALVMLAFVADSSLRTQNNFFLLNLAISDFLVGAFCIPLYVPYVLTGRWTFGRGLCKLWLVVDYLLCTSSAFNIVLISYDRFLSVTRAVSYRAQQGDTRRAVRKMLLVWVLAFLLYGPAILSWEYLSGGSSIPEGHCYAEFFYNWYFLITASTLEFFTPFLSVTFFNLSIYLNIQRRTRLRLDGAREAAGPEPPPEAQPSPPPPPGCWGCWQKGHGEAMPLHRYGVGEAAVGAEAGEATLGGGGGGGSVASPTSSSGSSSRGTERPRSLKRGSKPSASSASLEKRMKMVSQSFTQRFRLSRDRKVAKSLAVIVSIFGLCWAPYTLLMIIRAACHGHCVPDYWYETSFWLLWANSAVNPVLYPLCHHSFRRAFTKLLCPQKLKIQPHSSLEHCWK
Chain of mouse H3 receptor (P58406 whole entry): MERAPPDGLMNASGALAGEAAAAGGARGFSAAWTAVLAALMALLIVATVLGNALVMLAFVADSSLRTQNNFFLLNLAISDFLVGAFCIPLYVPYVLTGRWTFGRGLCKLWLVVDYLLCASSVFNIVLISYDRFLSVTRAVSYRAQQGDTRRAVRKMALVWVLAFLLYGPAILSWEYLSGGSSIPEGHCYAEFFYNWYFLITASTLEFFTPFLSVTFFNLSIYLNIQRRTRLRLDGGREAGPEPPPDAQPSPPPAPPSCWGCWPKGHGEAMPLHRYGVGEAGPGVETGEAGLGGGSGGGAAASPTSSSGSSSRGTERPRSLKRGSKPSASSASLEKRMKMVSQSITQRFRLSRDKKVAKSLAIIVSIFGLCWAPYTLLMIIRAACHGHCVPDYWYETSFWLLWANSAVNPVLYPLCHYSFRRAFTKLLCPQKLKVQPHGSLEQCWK

Row | Compound | Ki (human H3 receptor) [nM] | Ki (mouse H3 receptor) [nM]
1 | CC1CCCN1CCCOc1ccc(-c2c3c(nc4ccnn24)CCCC3)cc1 (centres unmarked) [9-{4-[3-(2-Methyl-pyrrolidin-1-yl)-propoxy]-phenyl}-5,6,7,8-tetrahydro-pyrazolo[5,1-b]quinazoline] | < 50 | < 50
2 | c1cc2nc3c(c(-c4ccc(OCCCN5CCCCC5)cc4)n2n1)CCCCC3 [10-[4-(3-Piperidin-1-yl-propoxy)-phenyl]-6,7,8,9-tetrahydro-5H-1,4,10a-triaza-cyclohepta[f]indene] | < 50 | < 50
3 | C[C@@H]1CCCN1CCCOc1ccc(-c2c3c(nc4ccnn24)CCCCC3)cc1 [10-{4-[3-(2-(R)-Methyl-pyrrolidin-1-yl)-propoxy]-phenyl}-6,7,8,9-tetrahydro-5H-1,4,10a-triaza-cyclohepta[f]indene] | < 50 | < 50
4 | c1ccc2c(-c3ccc(OCCCN4CCCC4)cc3)c3c(nc2c1)CCCCC3 [11-[4-(3-Pyrrolidin-1-yl-propoxy)-phenyl]-7,8,9,10-tetrahydro-6H-cyclohepta[b]quinoline] | < 50 | < 500
5 | CCN(CC)CCCOc1ccc(-c2c3c(nc4ccnn24)CCCCC3)cc1 [Diethyl-{3-[4-(6,7,8,9-tetrahydro-5H-1,4,10a-triaza-cyclohepta[f]inden-10-yl)-phenoxy]-propyl}-amine] | < 50 | < 500
6 | CN(C)CCCOc1ccc(-c2c3c(nc4ccnn24)CCCC3)cc1 [Dimethyl-{3-[4-(5,6,7,8-tetrahydro-pyrazolo[5,1-b]quinazolin-9-yl)-phenoxy]-propyl}-amine] | < 50 | < 500
7 | CN(CCCOc1ccc(-c2c3c(nc4ccnn24)CCCCC3)cc1)Cc1ccco1 [Furan-2-ylmethyl-methyl-{3-[4-(6,7,8,9-tetrahydro-5H-1,4,10a-triaza-cyclohepta[f]inden-10-yl)-phenoxy]-propyl}-amine] | < 5000 | < 500
8 | CN(C)CCCOc1ccc(-c2c3c(nc4ccnn24)CCC3)cc1 [{3-[4-(6,7-Dihydro-5H-1,4,8a-triaza-s-indacen-8-yl)-phenoxy]-propyl}-dimethyl-amine] | < 50 | < 500

Further lines, results first:

Row | Ki (human H3 receptor) [nM] | Ki (mouse H3 receptor) [nM] | Compound
9 | < 500 | < 5000 | c1cc(OCCCN2CCCCC2)cc(-c2c3c(nc4ccnn24)CCCCC3)c1 [10-[3-(3-Piperidin-1-yl-propoxy)-phenyl]-6,7,8,9-tetrahydro-5H-1,4,10a-triaza-cyclohepta[f]indene]
10 | < 500 | < 5000 | c1cc(OCCCN2CCCC2)cc(-c2c3c(nc4ccnn24)CCCCC3)c1 [10-[3-(3-Pyrrolidin-1-yl-propoxy)-phenyl]-6,7,8,9-tetrahydro-5H-1,4,10a-triaza-cyclohepta[f]indene]
11 | < 50 | < 500 | C[C@@H]1CC[C@@H](C)N1CCCOc1ccc(-c2c3c(nc4ccnn24)CCCCC3)cc1 [10-{4-[3-(2,5-(R,R)-Dimethyl-pyrrolidin-1-yl)-propoxy]-phenyl}-6,7,8,9-tetrahydro-5H-1,4,10a-triaza-cyclohepta[f]indene]
12 | < 50 | < 50 | CC1CCCN1CCCOc1ccc(-c2c3c(nc4ccnn24)CCCCC3)cc1 (centres unmarked) [10-{4-[3-(2-Methyl-pyrrolidin-1-yl)-propoxy]-phenyl}-6,7,8,9-tetrahydro-5H-1,4,10a-triaza-cyclohepta[f]indene]
13 | < 500 | < 500 | CN(C)[C@@H]1CCN(CCc2cc3cc(-c4c5c(nc6ccnn46)CCC5)ccc3o2)C1 [(1-{2-[5-(6,7-Dihydro-5H-1,4,8a-triaza-s-indacen-8-yl)-benzofuran-2-yl]-ethyl}-pyrrolidin-3-yl)-(R)-dimethyl-amine]
